# Calls of active or inactive are those of the source. The rule behind the calls is not given here.
# Tests used:
# [1] = Negative inotropic activity assessed as decrease in developed tension in isolated guinea pig left atrium; format: functional, tissue-based; details: Cavia porcellus, Cardiac atrium
# [2] = Activity against alternating current-induced arrhythmia in guinea pig left atrium; format: functional, tissue-based; details: Cavia porcellus, Cardiac atrium
# Heart [3] = experiment: Heart rate in spontaneously beating Langendorff-perfused guinea pig heart at 0.1uM; format: functional, Cavia porcellus; parameters: unit: beats/min
# Heart [4] = experiment: Heart rate in spontaneously beating Langendorff-perfused guinea pig heart at 10 nM; format: functional, Cavia porcellus; parameters: unit not given here
# Heart [5] = experiment: Intraventricular conduction time in spontaneously beating Langendorff-perfused guinea pig heart at 1 uM; format: functional, Cavia porcellus
# Heart [6] = experiment: Atrioventricular conduction time in spontaneously beating Langendorff-perfused guinea pig heart at 10 uM; format: functional, Cavia porcellus
# Heart [7] = experiment: Ventricular action potential duration in spontaneously beating Langendorff-perfused guinea pig heart at 10 uM; format: functional, Cavia porcellus
# [8] = Negative chronotropic activity assessed as decrease in atrial rate in isolated guinea pig right atrium at 50 uM relative to control; format: functional, Cavia porcellus, Cardiac atrium; parameters: scale not given: the % may be the effect or the level left
# Heart [9] = experiment: Ventricular action potential duration in spontaneously beating Langendorff-perfused guinea pig heart at 1 nM; format: functional, Cavia porcellus
# Heart [10] = experiment: Intraventricular conduction time in spontaneously beating Langendorff-perfused guinea pig heart at 10 uM; format: functional, Cavia porcellus
# Heart [11] = experiment: Atrioventricular conduction time in spontaneously beating Langendorff-perfused guinea pig heart at 1 nM; format: functional, Cavia porcellus
# Heart [12] = experiment: Atrioventricular conduction time in spontaneously beating Langendorff-perfused guinea pig heart at 0.1 uM; format: functional, Cavia porcellus
# Heart [13] = experiment: Heart rate in spontaneously beating Langendorff-perfused guinea pig heart at 10 uM; format: functional, Cavia porcellus; parameters: unit not given here
# Heart [14] = experiment: Ventricular action potential duration in spontaneously beating Langendorff-perfused guinea pig heart at 0.1 uM; format: functional, Cavia porcellus
# Aorta [15] = experiment: Inhibition of calcium-induced contraction of potassium ion depolarized guinea pig aortic strips at 100 uM; format: functional; details: Cavia porcellus
# Heart [16] = experiment: Intraventricular conduction time in spontaneously beating Langendorff-perfused guinea pig heart at 0.1 uM; format: functional, Cavia porcellus
# Heart [17] = experiment: Ventricular action potential duration in spontaneously beating Langendorff-perfused guinea pig heart at 10 nM; format: functional, Cavia porcellus
# Heart [18] = experiment: Intraventricular conduction time in spontaneously beating Langendorff-perfused guinea pig heart at 10 nM; format: functional, Cavia porcellus
# Heart [19] = experiment: Atrioventricular conduction time in spontaneously beating Langendorff-perfused guinea pig heart at 10 nM; format: functional, Cavia porcellus
# Heart [20] = experiment: Heart rate in spontaneously beating Langendorff-perfused guinea pig heart at 1 uM; format: functional, Cavia porcellus; parameters: unit not given here
# Heart [21] = experiment: Intraventricular conduction time in spontaneously beating Langendorff-perfused guinea pig heart at 1 nM; format: functional, Cavia porcellus
# Heart [22] = experiment: Heart rate in spontaneously beating Langendorff-perfused guinea pig heart at 1 nM; format: functional, Cavia porcellus; parameters: unit not given here
# [23] = Activity against alternating current-induced arrhythmia in guinea pig left atrium at 50 uM; format: functional, Cavia porcellus, Cardiac atrium
# Heart [24] = experiment: Ventricular action potential duration in spontaneously beating Langendorff-perfused guinea pig heart at 1 uM; format: functional, Cavia porcellus
# [25] = Negative inotropic activity assessed as decrease in developed tension in isolated guinea pig left atrium at 10 uM relative to control; format: functional, Cavia porcellus, Cardiac atrium; parameters: scale not given: the % may be the effect or the level left
# Heart [26] = experiment: Atrioventricular conduction time in spontaneously beating Langendorff-perfused guinea pig heart at 1 uM; format: functional, Cavia porcellus
# [27] = Displacement of [3H]batrachotoxin from sodium channel in rat brain; format: tissue-based
# [28] = Positive chronotropic activity in isolated guinea pig right atrium at 1 uM relative to control; format: functional, Cavia porcellus, Cardiac atrium
# [29] = Negative inotropic activity assessed as decrease in developed tension in isolated guinea pig left atrium at 50 uM relative to control; format: functional, Cavia porcellus, Cardiac atrium; parameters: scale not given: the % may be the effect or the level left
# [30] = Positive chronotropic activity in isolated guinea pig right atrium at 5 uM relative to control; format: functional, Cavia porcellus, Cardiac atrium
# [31] = Negative inotropic activity assessed as decrease in developed tension in isolated guinea pig left atrium at 1 uM relative to control; format: functional, Cavia porcellus, Cardiac atrium; parameters: scale not given: the % may be the effect or the level left
# [32] = Negative inotropic activity assessed as decrease in developed tension in isolated guinea pig left atrium at 50 nM relative to control; format: functional, Cavia porcellus, Cardiac atrium; parameters: scale not given: the % may be the effect or the level left
# [33] = (§1) Activity against alternating current-induced arrhythmia in guinea pig left atrium at 10 uM; format: functional, Cavia porcellus, Cardiac atrium
# [34] = Negative chronotropic activity assessed as decrease in atrial rate in isolated guinea pig right atrium at 10 uM relative to control; format: functional, Cavia porcellus, Cardiac atrium; parameters: scale not given: the % may be the effect or the level left
# Aorta [35] = experiment: Inhibition of calcium-induced contraction of potassium ion depolarized guinea pig aortic strips at 50 uM; format: functional; details: Cavia porcellus
# [36] = Positive chronotropic activity in isolated guinea pig right atrium relative to control; format: functional, Cavia porcellus, Cardiac atrium
# Cavia porcellus = organism: Cavia porcellus; experiment: as §1; format: functional; details: Cardiac atrium
# [37] = Negative inotropic activity assessed as decrease in developed tension in isolated guinea pig left atrium at 100 uM relative to control; format: functional, Cavia porcellus, Cardiac atrium; parameters: scale not given: the % may be the effect or the level left
# tissue or blood = details: Cavia porcellus, Cardiac atrium
# [38] = Activity against alternating current-induced arrhythmia in guinea pig left atrium at 100 uM; format: functional, Cavia porcellus, Cardiac atrium
# [39] = Negative chronotropic activity assessed as decrease in atrial rate in isolated guinea pig right atrium at 100 uM relative to control; format: functional, Cavia porcellus, Cardiac atrium; parameters: scale not given: the % may be the effect or the level left
# [40] = Negative inotropic activity assessed as decrease in developed tension in isolated guinea pig left atrium at 0.1 uM relative to control; format: functional, Cavia porcellus, Cardiac atrium; parameters: scale not given: the % may be the effect or the level left
smiles,measurement,setting,value
CC(=O)Nc1ccc(C(=O)NC[C@@H]2CCCN3CCCC[C@H]23)cc1,EC50,[1],59 nM
same,EC50,[2],470 nM
same,Activity,Heart [3],170
same,Activity,Heart [4],175
same,Activity,Heart [5],34 ms
same,Activity,Heart [6],75 ms
same,Activity,Heart [7],204 ms
same,Activity,[8],14%
same,Activity,Heart [9],170 ms
same,Activity,Heart [10],33 ms
same,Activity,Heart [11],62 ms
same,Activity,Heart [12],70 ms
same,Activity,Heart [13],165
same,Activity,Heart [14],190 ms
same,inhibition at 100 µM,Aorta [15],3%
same,Activity,Heart [16],32 ms
same,Activity,Heart [17],182 ms
same,Activity,Heart [18],33 ms
same,Activity,Heart [19],65 ms
same,Activity,Heart [20],166
same,Activity,Heart [21],34 ms
same,Activity,Heart [22],180
same,Activity,[23],92%
same,Activity,Heart [24],195 ms
same,Activity,[25],86%
same,Activity,Heart [26],72 ms
Cc1cc(C(=O)c2ccccc2)ccc1NC(=O)C[C@@H]1CCCN2CCCC[C@H]12,IC50,[27],3700 nM
Cc1cccc(C)c1NC(=O)C[C@@H]1CCCN2CCCC[C@H]12,EC50,[1],620 nM
same,EC50,[2],5710 nM
same,Activity,[28],8%
same,Activity,[29],95%
same,inhibition at 100 µM,Aorta [15],5%
same,Activity,[23],78%
CCN(CC)CC(=O)Nc1c(C)cccc1C [LIDOCAINE],Activity,[30],29%
same,Activity,[31],88%
same,EC50,[1],17 nM
same,inhibition at 100 µM,Aorta [15],14%
same,Activity,[23],34%
Cc1cccc(C)c1OC[C@@H]1CCCN2CCCC[C@H]12,Activity,[32],25%
same,EC50,[2],460 nM
same,Activity,Heart [3],210
same,Activity,Heart [4],215
same,Activity,Heart [5],30 ms
same,Activity,Heart [6],70 ms
same,Activity,Heart [7],210 ms
same,Activity,[33],176%
same,Activity,Heart [9],155 ms
same,Activity,Heart [10],31 ms
same,Activity,Heart [11],60 ms
same,Activity,Heart [12],66 ms
same,Activity,[34],19%
same,Activity,Heart [13],203
same,Activity,Heart [14],170 ms
same,inhibition at 50 µM,Aorta [35],26%
same,Activity,Heart [16],28 ms
same,Activity,Heart [17],160 ms
same,Activity,Heart [18],30 ms
same,Activity,Heart [19],64 ms
same,Activity,Heart [20],206
same,Activity,Heart [21],30 ms
same,Activity,Heart [22],218
same,Activity,Heart [24],200 ms
same,Activity,Heart [26],68 ms
Cc1cc(NS(C)(=O)=O)cc(C)c1NC(=O)C[C@@H]1CCCN2CCCC[C@H]12,EC50,[1],310 nM
same,Activity,[36],8%
same,Activity,Cavia porcellus,inactive
same,inhibition at 100 µM,Aorta [15],24%
same,Activity,[37],86%
C=C[C@H]1CN2CC[C@H]1C[C@@H]2[C@@H](O)c1ccnc2ccc(OC)cc12 [QUINIDINE],EC50,[1],3380 nM
same,EC50,tissue or blood,3990 nM
same,EC50,[2],10300 nM
same,Activity,Heart [3],140
same,Activity,Heart [5],35 ms
same,Activity,Heart [6],70 ms
same,Activity,[8],86%
same,Activity,Heart [10],39 ms
same,Activity,Heart [11],53 ms
same,Activity,Heart [12],57 ms
same,Activity,Heart [14],182 ms
same,Activity,[29],71%
same,inhibition at 100 µM,Aorta [15],30%
same,Activity,Heart [16],31 ms
same,Activity,Heart [18],27 ms
same,Activity,Heart [19],54 ms
same,Activity,Heart [20],123
same,Activity,Heart [21],25 ms
same,Activity,[23],69%
same,Activity,Heart [24],200 ms
same,Activity,Heart [26],60 ms
CS(=O)(=O)Nc1ccc(C(=O)NC[C@@H]2CCCN3CCCC[C@H]23)cc1,EC50,[1],250 nM
same,Activity,[38],34%
same,Activity,[39],4%
same,Activity,[29],92%
same,inhibition at 100 µM,Aorta [15],1%
Cc1cccc(C)c1OC[C@H]1CCCN2CCCC[C@H]12,EC50,[1],14 nM
same,Activity,[33],35%
same,Activity,[34],13%
same,inhibition at 100 µM,Aorta [15],21%
same,Activity,[40],68%
Cc1cc(C(=O)c2ccccc2)cc(C)c1NC(=O)C[C@@H]1CCCN2CCCC[C@H]12,EC50,[1],760 nM
same,EC50,tissue or blood,3980 nM
same,EC50,[2],4810 nM
same,Activity,[8],70%
same,Activity,[29],88%
same,inhibition at 100 µM,Aorta [15],31%
same,Activity,[23],55%
Cc1cc(N)cc(C)c1OC[C@H]1CCCN2CCCC[C@H]12,EC50,[1],630 nM
same,Activity,[33],38%
same,Activity,[39],44%
same,inhibition at 50 µM,Aorta [35],32%
same,Activity,[25],91%

# From ChEMBL document CHEMBL1139835, “Novel quinolizidinyl derivatives as antiarrhythmic agents” (J Med Chem, 2007)
